Data as given in PMC8213057, “Targeting ALK2: An Open Science Approach to Developing Therapeutics for the Treatment of Diffuse Intrinsic Pontine Glioma” (Journal of Medicinal Chemistry, 2020).

Tests used:
MKK7 = target: T1, MKK7 (Homo sapiens, UniProt O14733); conditions: 1 μM; Run 1, Run 2
T1 sequence (O14733 1-419): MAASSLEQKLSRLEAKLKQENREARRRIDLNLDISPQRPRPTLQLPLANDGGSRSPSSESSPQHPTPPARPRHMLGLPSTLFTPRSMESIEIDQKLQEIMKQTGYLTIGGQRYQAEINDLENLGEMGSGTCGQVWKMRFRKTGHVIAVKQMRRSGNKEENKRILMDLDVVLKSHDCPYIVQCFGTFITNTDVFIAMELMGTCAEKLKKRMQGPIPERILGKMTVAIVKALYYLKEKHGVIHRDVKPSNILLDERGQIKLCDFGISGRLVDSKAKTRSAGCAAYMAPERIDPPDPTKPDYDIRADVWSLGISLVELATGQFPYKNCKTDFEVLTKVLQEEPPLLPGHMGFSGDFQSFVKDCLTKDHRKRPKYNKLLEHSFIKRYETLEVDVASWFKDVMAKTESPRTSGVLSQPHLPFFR

NEK3 = target: T2, NEK3 (Homo sapiens, UniProt P51956); conditions: 1 μM; Run 1, Run 2
T2 sequence (P51956 1-506): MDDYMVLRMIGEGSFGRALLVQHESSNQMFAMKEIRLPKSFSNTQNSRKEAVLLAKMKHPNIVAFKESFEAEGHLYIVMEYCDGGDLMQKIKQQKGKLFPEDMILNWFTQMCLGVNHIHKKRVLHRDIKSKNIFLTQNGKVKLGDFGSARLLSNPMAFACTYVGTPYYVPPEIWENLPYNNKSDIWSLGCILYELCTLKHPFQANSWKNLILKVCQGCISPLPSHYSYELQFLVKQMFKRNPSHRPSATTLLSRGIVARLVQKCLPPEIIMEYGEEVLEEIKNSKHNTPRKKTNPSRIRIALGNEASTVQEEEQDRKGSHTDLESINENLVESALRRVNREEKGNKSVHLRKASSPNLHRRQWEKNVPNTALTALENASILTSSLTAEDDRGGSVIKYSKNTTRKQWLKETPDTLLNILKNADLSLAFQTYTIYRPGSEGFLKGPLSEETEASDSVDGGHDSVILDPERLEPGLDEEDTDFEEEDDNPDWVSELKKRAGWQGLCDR

RIPK4 = target: T3, RIPK4 (Homo sapiens, UniProt P57078); conditions: 1 μM; Run 1, Run 2
T3 sequence (P57078 1-832): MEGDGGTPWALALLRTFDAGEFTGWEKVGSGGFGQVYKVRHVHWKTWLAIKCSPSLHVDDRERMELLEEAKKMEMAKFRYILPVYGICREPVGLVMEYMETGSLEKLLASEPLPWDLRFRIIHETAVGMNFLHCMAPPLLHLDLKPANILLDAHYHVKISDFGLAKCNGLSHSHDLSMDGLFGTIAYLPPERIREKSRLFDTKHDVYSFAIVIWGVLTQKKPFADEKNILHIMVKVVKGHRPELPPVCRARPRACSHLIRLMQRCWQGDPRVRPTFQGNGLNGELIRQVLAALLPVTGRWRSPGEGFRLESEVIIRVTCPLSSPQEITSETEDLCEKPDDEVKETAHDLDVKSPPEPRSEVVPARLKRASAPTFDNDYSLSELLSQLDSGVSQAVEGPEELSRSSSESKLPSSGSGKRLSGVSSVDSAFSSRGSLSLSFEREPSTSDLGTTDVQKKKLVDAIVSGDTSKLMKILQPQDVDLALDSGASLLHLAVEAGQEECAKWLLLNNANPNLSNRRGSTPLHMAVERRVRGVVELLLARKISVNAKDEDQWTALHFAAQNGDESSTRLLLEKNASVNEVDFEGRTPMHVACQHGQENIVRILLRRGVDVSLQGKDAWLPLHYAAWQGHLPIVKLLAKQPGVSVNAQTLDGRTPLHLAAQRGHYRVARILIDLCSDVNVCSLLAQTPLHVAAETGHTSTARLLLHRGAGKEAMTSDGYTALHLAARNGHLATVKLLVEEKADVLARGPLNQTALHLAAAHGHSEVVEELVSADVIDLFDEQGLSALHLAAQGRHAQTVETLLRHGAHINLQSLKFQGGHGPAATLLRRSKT

DCAMKL1 = target: T4, DCAMKL1 (Homo sapiens, UniProt O15075); assay: biochemical; conditions: read-out: % enzyme activity, 1 μM; Run 1, Run 2
T4 sequence (O15075 1-740): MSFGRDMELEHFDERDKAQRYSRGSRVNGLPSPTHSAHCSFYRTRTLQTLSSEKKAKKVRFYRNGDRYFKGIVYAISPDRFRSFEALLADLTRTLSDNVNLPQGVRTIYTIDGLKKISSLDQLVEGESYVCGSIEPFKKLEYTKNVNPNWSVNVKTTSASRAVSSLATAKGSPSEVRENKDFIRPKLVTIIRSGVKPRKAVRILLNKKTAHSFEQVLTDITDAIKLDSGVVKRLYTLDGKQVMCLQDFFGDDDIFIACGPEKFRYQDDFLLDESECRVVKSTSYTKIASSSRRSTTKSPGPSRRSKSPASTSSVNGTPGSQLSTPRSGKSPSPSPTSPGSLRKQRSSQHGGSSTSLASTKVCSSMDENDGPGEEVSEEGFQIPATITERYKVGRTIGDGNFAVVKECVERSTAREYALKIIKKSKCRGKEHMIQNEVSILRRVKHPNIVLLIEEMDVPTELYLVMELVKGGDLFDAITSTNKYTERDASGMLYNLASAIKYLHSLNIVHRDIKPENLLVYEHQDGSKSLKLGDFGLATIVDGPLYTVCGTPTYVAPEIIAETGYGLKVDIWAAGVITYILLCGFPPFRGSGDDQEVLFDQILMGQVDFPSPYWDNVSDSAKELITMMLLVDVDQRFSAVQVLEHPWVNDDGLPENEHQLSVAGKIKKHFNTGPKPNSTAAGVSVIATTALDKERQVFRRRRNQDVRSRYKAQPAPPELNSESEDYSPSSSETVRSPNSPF

P38g = target: T5, P38g (Homo sapiens, UniProt P53778); assay: biochemical; conditions: read-out: % enzyme activity, 1 μM; Run 1, Run 2
T5 sequence (P53778 1-367): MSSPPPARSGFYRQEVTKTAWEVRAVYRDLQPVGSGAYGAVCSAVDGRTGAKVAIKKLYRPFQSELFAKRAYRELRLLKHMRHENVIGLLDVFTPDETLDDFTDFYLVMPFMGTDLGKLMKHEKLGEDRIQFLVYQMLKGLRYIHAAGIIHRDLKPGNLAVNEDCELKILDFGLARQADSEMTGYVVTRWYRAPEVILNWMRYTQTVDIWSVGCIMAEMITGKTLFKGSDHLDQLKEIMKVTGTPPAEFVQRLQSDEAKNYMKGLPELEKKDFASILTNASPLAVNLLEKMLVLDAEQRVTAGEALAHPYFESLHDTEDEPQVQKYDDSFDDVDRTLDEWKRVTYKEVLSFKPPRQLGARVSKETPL

Row | Compound | % enzyme activity (MKK7) [%] | % enzyme activity (NEK3) [%] | % enzyme activity (RIPK4) [%] | remaining activity at 1 µM (DCAMKL1) [%] | remaining activity at 1 µM (P38g) [%]
1 | COc1cc(-c2cncc(-c3ccc(N4C[C@@H](C)N(C)[C@@H](C)C4)cc3)c2C)cc(F)c1C(N)=O [Compound 26c, 2-Fluoro-6-methoxy-4-(4-methyl-5-(4-((3R,5S)-3,4,5-trimethylpiperazin-1-yl)phenyl)pyridin-3-yl)benzamide] | 97.52 | 94.54 | 82.04 | 89.1 | 108
2 | COc1cc(-c2cncc(-c3ccc(N4CCN(C)CC4)cc3)c2C)cc(F)c1C(N)=O [Compound 26a, 2-Fluoro-6-methoxy-4-(4-methyl-5-(4-(4-methylpiperazin-1-yl)phenyl)pyridin-3-yl)benzamide] | 92.71 | 86.84 | 70.28 | 81.8 | 110
